Assay results from US6774139B1, “Dual function microbicides” (Parker Hughes Institute, priority 2000, dated 2004).
Where two headings read alike, the source gives them in different places.

Legend:
[1] = test system: HIV-1 strain HTLVIIIB; assay: p24 antigen production in HIV-1 infected PBMCs; type: cell-based
Experimental: The HTLVIIIB strain of HIV-1 was propagated in CCRF-CEM cells and the virus stocks obtained from cell-free supernatants of infected cells were titered using MT-2 cells. Cell-free supernatants were harvested and frozen in 1 ml aliquots at −70° C.
Stock solutions (10 mM) of thiourea compounds were prepared in dimethylsulfoxide (DMSO). Cells were cultured for 7 days in 96-well microtiter plates (100 μl/well; 2×10^6 cells/ml, triplicate wells) in the presence and absence of various concentrations (0.001 μM to 100 μM) of the thioureas. Cells from non-infected controls were handled in the same way except the virus was omitted from the preparation. Aliquots of culture supernatants were removed from the wells on the 7th day after infection for p24 antigen as previously described. The p24 enzyme immunoassay was the unmodified kinetic assay available commercially (Coulter Corporation/Immunotech, Inc., Westbrook, Me.). The assay uses a murine monoclonal antibody (mAb) to the HIV core protein coated onto microwell strips to which the antigen present in the test culture supernatant sample binds. The plates were read on a ELISA reader (Molecular Devices, Sunnyvale, Calif.) at 650 nm and p24 levels, expressed as ng/ml, were calculated against known standards supplied by Coulter/Imrunotech, Inc. Percent viral inhibition was calculated by comparing the p24 values for the test substance-treated infected cells with the p24 values for untreated infected cells (i.e., virus controls). […]

[2] = test system: human sperm; assay: sperm immobilizing activity (SIA) by CASA; type: cell-based; conditions: for EC50: read-out: EC50 [SIA]
Experimental: To evaluate the effect of each of the 31 thiourea compounds on human sperm motility and kinematics, highly motile fractions of sperm were prepared from donor semen (n=8) by discontinuous (90-45%) gradient centrifugation using Enhance Plus medium (Conception Technologies, San Diego, Calif.) and the “swim-up” method. The swim-up method was used after density gradient centrifugation, washing, and resuspension of sperm in BWW-3% BSA. Pooled swim-up fraction was washed once prior to spermicidal assay.
All donor semen specimens were obtained after informed consent and in compliance with the guidelines of the Parker Hughes Institute Institutional Review Board. […] The stock solutions of thioureas were prepared in DMSO (100 mM) and diluted in assay medium to yield the desired concentrations (up to 1000 μM). Corresponding volume of DMSO (either 0.5% or 1%) was added to control tubes. After 3 hours of incubation at 37° C., the percentage of motile sperm was evaluated by CASA [53, 62-64]. The percent motilities were compared with sham-treated control suspensions of motile sperm.
For CASA, 5-μl of each sperm suspension was loaded into a 20-μm Microcell slide (Conception Technologies) in a counting chamber at 37° C. At least 5-8 fields per slide were scanned for analysis using a Hamilton Thome Integrated Visual Optical System (IVOS), version 10 instrument (Hamilton Thome Research Inc., Danvers, Mass.). Each field was recorded for 30 seconds. The computer calibrations were set at 30 frames at a frame rate of 30/second.
The sperm kinematics parameters that were determined included numbers of motile (MOT) and progressively (PRG) motile sperm; curvilinear velocity (VCL; a measure of the total distance traveled by a given sperm during the acquisition divided by the time elapsed); average path velocity (VAP; the spatially averaged path that eliminates the wobble of the sperm head), straight line velocity (VSL; the straight-line distance from beginning to end of track divided by time taken), beat cross frequency (BCF; frequency of sperm head crossing sperm average path), the amplitude of lateral head displacement (ALH; the mean width of sperm head oscillation), and the derivatives, straightness (STR=VSL/VAP×100) and linearity (LIN=VSL/VCL×100; departure of sperm track from a straight line). Data from each individual cell track were recorded and analyzed. At least 200 motile sperm were analyzed for each aliquot sampled.

[3] = molecular target: T1, purified recombinant HIV-1 RT (Human immunodeficiency virus type 1 group M subtype B, UniProt P03366); assay: cell-free Quan-T-RT RT inhibition assay (scintillation proximity); type: biochemical; conditions: for IC50: purified recombinant HIV-1 RT, cell-free
T1 construct: purified recombinant HIV-1 RT
Experimental: Each of the thirty one thiourea compounds was tested for RT inhibitory activity against purified recombinant HIV-1 RT using the cell-free Quan-T-RT system (Amersham Corp., Arlington Heights, Ill.), which utilizes the scintillation proximity assay principle.

[4] = partition coefficient n-octanol/water (Pa); type: physicochemical; conditions: UV absorption
Experimental: Partition of the test compounds between n-octanol and water as a measure of their lipophilicity was determined by taking the UV absorption of each compound in n-octanol, water-saturated n- octanol (1:1), and n-octanol-saturated water (1:1). The UV absorption maxima were determined by selecting a wavelength with the maximum absorption peak in the water-saturated octanol layer and the corresponding peak in the octanol-saturated water. Three absorption spectra were obtained for each compound. The partion coefficient (Pa) was calculated as the ratio of the compound concentration present in the lipid phase to the compound concentration present in the aqueous phase.

[5] = Human immunodeficiency virus 1, PBMC, HIV-1 HTLVIIIB infected human PBMC, p24 antigen on 7th day, read-out: IC50 [p24]
[6] = Human immunodeficiency virus 1, PBMC, HIV-1 HTLVIIIB infected human PBMC, values in nM, read-out: IC50[p24]
[7] = motile human sperm, 3 hours at 37° C., CASA
[8] = Human immunodeficiency virus 1, PBMC, read-out: IC50 [p24]

Compound | IC50 [1, 5] [nM] | IC50 [1, 6] [nM] | EC50 [2, 7] [nM] | IC50 ([3]; IC50 [rRT]) [nM] | Pa, Partition coefficient [4] | also measured
COc1cccc(CCNC(=S)Nc2ccc(Br)cn2)c1 [HI 239] | 3 | 1 to 10 | > 500000 | 400 | 1.07 | –
S=C(NCCC1=CCCCC1)Nc1ccccn1 [HI-541] | 10 | – | > 500000 | 5300 | – | –
COc1ccc(OC)c(CCNC(=S)Nc2ccc(Br)cn2)c1 [HI 236] | < 1 | < 1 | > 500000 | 100 | 1.78 | –
S=C(NCCc1ccccc1)Nc1ccc(Br)cn1 [HI 275] | 4 | 4 | 361000 ± 31000 | 1250 | 3.50 | –
COc1ccc(OC)c(CCNC(=S)Nc2ccc(C(F)(F)F)cn2)c1 [HI 310, N-[2-(5-dimethoxyphenethyl)]-N′-[2-(5-trifluoromethylpyridinyl)]-thiourea] | – | – | 276000 ± 22000 | – | 1.00 | IC50 ([1]; HIV-1 HTLVIIIB infected human PBMC, p24 antigen on 7th day, read-out: IC50 [p24]): 80 nM; IC50 ([3]; read-out: IC50 [rRT]): 2000 nM
S=C(NCCc1cccs1)Nc1ccc(Br)cn1 [HI 443] | – | – | > 500000 | 5300 | – | IC50 [1, 8]: 30 nM
Fc1cccc(CCNC(=S)Nc2ccc(Br)cn2)c1 [HI 241] | < 1 | < 1 | > 500000 | 700 | – | –
S=C(NCCc1ccccn1)Nc1ccc(Br)cn1 [Trovirdine, reference compound] | – | – | – | – | 5.3 | IC50 [1, 8]: 7 nM; SIA / sperm motility (in words) [2]: lacked SIA; EC50 ([2]; Homo sapiens, Sperm, 3 h): > 500000 nM
FC(F)(F)c1ccc(NC(=S)NCCc2ccccc2)nc1 [HI 308, N-[2-(phenethyl)]-N′-[2-(5-trifluoromethylpyridinyl)]-thiourea] | – | – | > 500000 | > 100000 | – | anti-HIV activity (in words) [3]: inactive
COc1ccccc1CCNC(=S)Nc1ccc(Br)cn1 [HI 237] | 10 | – | > 500000 | 1000 | 3.79 | –
Cc1ccc(CCNC(=S)Nc2ccc(Br)cn2)cc1 [HI 244] | 30 | – | > 500000 | 700 | 1.49 | –
S=C(NCCN1CCNCC1)Nc1ccc(Br)cn1 [HI 258] | 2 | 2 | > 500000 | > 100000 | 5.92 | –
Fc1cccc(CCNC(=S)Nc2ccc(Br)cn2)c1 [HI 345] | – | – | > 500000 | – | 1.51 | IC50 ([3]; read-out: IC50 [rRT]): 700 nM
S=C(NCCN1CCCC1)Nc1ccc(Br)cn1 [HI 230] | 1000 | – | > 500000 | > 100000 | 7.91 | –
S=C(NCCc1cccc(Cl)c1)Nc1ccc(Br)cn1 [HI 254] | 10 | – | > 500000 | 3100 | 6.20 | –
FC(F)(F)c1ccc(NC(=S)NCCN2CCCCC2)nc1 [HI 344] | – | – | 131000 | > 100000 | 10.27 | –
FC(F)(F)c1ccc(NC(=S)NCCC2=CCCCC2)nc1 [HI 347, N-[2-(5-trifluoromethylpyridinyl)]-N′-[2-(1-cyclohexenyl)ethyl]-thiourea] | – | – | 131000 ± 4000 | – | 11.5 | IC50 [1, 8]: 79 nM; anti-HIV activity, fold less active than halo functionalized derivatives ([1]; versus PHI-346 and PHI-445): 26 fold; effective 100% inhibitory concentration (EC100), sperm motility ([2]; FIG. 1, CASA): 0.25 mM; SIA, fold less active than halo functionalized derivatives ([2]; versus PHI-346 and PHI-445): two to three-fold less active
S=C(NCCN1CCCCC1)Nc1ccc(Br)cn1 [HI 172] | < 1 | < 1 | > 500000 | 5800 | 8.91 | –
Fc1ccc(CCNC(=S)Nc2ccc(Br)cn2)cc1 [HI 242] | 9 | 1 to 10 | > 500000 | 6400 | 10.7 | –
CC1(C)C2CCC(CNC(=S)Nc3ccc(Br)cn3)C1C2 (stereo not drawn) [HI 444] | – | – | > 500000 | – | 2.1 | anti-HIV activity (in words) [3]: loss of anti-HIV activity; IC50 ([3]; read-out: IC50 [rRT]): > 100000 nM
S=C(NCCc1ccc(Cl)cc1)Nc1ccc(Br)cn1 [HI 255] | 1 | 1 to 10 | 160000 | 400 to 6400 | 2.23 | –
FC(F)(F)c1ccc(NC(=S)NCCc2ccccn2)nc1 [HI 309] | – | – | > 500000 | 13900 | 3.81 | –
Oc1ccc(CCNC(=S)Nc2ccc(Br)cn2)cc1 [HI 256, N-[2-(4-hydroxyphenethyl)]-N′-[2-(5-bromopyridyl)]thiourea] | – | – | 233000 ± 68000 | – | 2.93 | IC50 [1, 8]: 3060 nM
COc1ccc(CCNC(=S)Nc2ccc(Br)cn2)cc1OC [HI 232] | – | – | > 500000 | > 100000 | 22.7 | –
Fc1ccccc1CCNC(=S)Nc1ccc(C(F)(F)F)cn1 [HI 311] | 90 | – | > 500000 | 600 | 5.13 | –
S=C(NCCc1ccc(Br)cc1)Nc1ccc(Br)cn1 [HI 243] | 70 | – | > 500000 | 900 | 4.16 | –
